We go through 14 compounds from patent US7977342B2, “HCV inhibiting bi-cyclic pyrimidines” (Tibotec-Virco Virology BVBA, priority 2007, dated 2011).

The subject of the assay is HCV replicons (HCV RNA replication) in Huh-7 luc/neo cells. Put plainly: Stable replicon cell reporter assay (Huh-Luc, luciferase). In kind it is cell-based. As to conditions: Hepatitis C virus, 72 h; Huh-Luc (Huh-7 luc/neo) cells, HCV type 1b NS3-NS5B replicon, luciferase readout, three days incubation. An excerpt:
The compounds of the present invention were examined for activity in the inhibition of HCV RNA replication in a cellular assay. […] The cellular assay was based on a bicistronic expression construct, as described by Lohmann et al. (1999) Science vol. 285 pp. 110-113 with modifications described by Krieger et al. (2001) Journal of Virology 75: 4614-4624, in a multi-target screening strategy. In essence, the method was as follows.
The assay utilized the stably transfected cell line Huh-7 luc/neo (hereafter referred to as Huh-Luc). This cell line harbored an RNA encoding a bicistronic expression construct comprising the wild type NS3-NS5B regions of HCV type 1b translated from an Internal Ribosome Entry Site (IRES) from encephalomyocarditis virus (EMCV), preceded by a reporter portion (FfL-luciferase), and a selectable marker portion (neo^R, neomycine phosphotransferase). The construct was bordered by 5′ and 3′ NTRs (non-translated regions) from HCV type 1b. Continued culture of the replicon cells in the presence of G418 (neo^R) was dependent on the replication of the HCV RNA. The stably transfected replicon cells that expressed HCV RNA, which replicated autonomously and to high levels, encoding inter alia luciferase, were used for screening the antiviral compounds.
The replicon cells were plated in 384 well plates in the presence of the test and control compounds which were added in various concentrations. Following an incubation of three days, HCV replication was measured by assaying luciferase activity (using standard luciferase assay substrates and reagents and a Perkin Elmer ViewLux™ ultraHTS microplate imager). Replicon cells in the control cultures had high luciferase expression in the absence of any inhibitor. The inhibitory activity of the compound on luciferase activity was monitored on the Huh-Luc cells, enabling a dose-response curve for each test compound. EC50 values were then calculated, which value represented the amount of the compound required to decrease by 50% the level of detected luciferase activity, or more specifically, the ability of the genetically linked HCV replicon RNA to replicate.
(A replicon is a self-replicating genome or part of one, used to study replication in cells.)
`Cc1noc2nc(-c3cc(Cl)ccc3F)nc(Nc3ccncc3)c12` [Compound 8]: the EC50 (as a rule, the concentration that produces a half-maximal response) was 0.4 µM.

The compound `Cc1cnccc1Nc1nc(-c2cc(Cl)ccc2F)nc2c1CCC2` [Compound 20] displayed a 50% effective concentration (EC50) of 0.7 µM.

The compound `NC(=O)c1cnccc1Nc1nc(-c2cc(Cl)ccc2F)nc2c1CCC2` [Compound 21] had an EC50 of 0.4 µM.

In turn, `CNC(=O)c1cnccc1Nc1nc(-c2cc(Cl)ccc2F)nc2c1CCC2` [Compound 35] had an EC50 of 1.5 µM.

For `CNC(=O)c1cnccc1Nc1nc(-c2cc(Cl)ccc2F)nc2c1CCCC2` [Compound 40], the midpoint of the response, the EC50, lay at 7.3 µM.

For the compound `CC1CCc2nc(-c3cc(Cl)ccc3F)nc(Nc3ccncc3C(N)=O)c21` (centres unmarked) [Compound 46], the half-maximal effective concentration (EC50) amounted to 1.6 µM.

For `CNC(=O)c1cnccc1Nc1nc(-c2cc(Cl)ccc2F)nc2c1C(C)CC2` (centres unmarked) [Compound 47, 4-[2-(5-Chloro-2-fluorophenyl)-5-methyl-6,7-dihydro-5H-cyclopentapyrimidin-4-ylamino]-N-methyl-nicotinamide], the midpoint of the response, the EC50, lay at 27.7 µM.

As to `CC1CCc2nc(-c3cc(Cl)ccc3F)nc(Nc3ccncc3C(=O)O)c21` (centres unmarked) [Compound 49, 4-[2-(5-Chloro-2-fluorophenyl)-5-methyl-6,7-dihydro-5H-cyclopentapyrimidin-4-ylamino]-nicotinic acid], the 50% effective concentration (EC50) came to 13.1 µM.

`C[C@H](O)CNC(=O)c1cnccc1Nc1nc(-c2cc(Cl)ccc2F)nc2c1CCCC2` [Compound 57] gave a 50% effective concentration (EC50) of 24 µM.

The compound `NNC(=O)c1cnccc1Nc1nc(-c2cc(Cl)ccc2F)nc2c1CCC2` [Compound 58] showed an EC50 of 10.3 µM.

As for `CCN(CC)CCNC(=O)c1cnccc1Nc1nc(-c2cc(Cl)ccc2F)nc2c1CCCC2` [Compound 59], the EC50 worked out at 2 µM.

`CC1(C)Cc2nc(-c3cc(Cl)ccc3F)nc(Nc3ccncc3C(N)=O)c2C1` [Compound 62, 4-[2-(5-Chloro-2-fluoro-phenyl)-6,6-dimethyl-6,7-dihydro-5H-cyclopentapyrimidin-4-ylamino]-nicotinamide] displayed a concentration giving a half-maximal response (EC50) of 0.8 µM.

For `CN(C)CCCNC(=O)c1cnccc1Nc1nc(-c2cc(Cl)ccc2F)nc2c1CCC2` [Compound 69], the EC50 was found to be 1.8 µM.

Turning to `Cc1cnccc1Nc1nc(-c2cc(Cl)ccc2F)nn2cccc12` [Compound 80], the concentration giving a half-maximal response (EC50) is 5.8 µM.
